Converted amounts (≈) assume the structure as drawn.

The first assay relates to M. tuberculosis H37Rv (ATCC 27294). The assay can be described thus: Microplate Alamar Blue assay (MABA), MIC against replicating M. tuberculosis H37Rv. It counts as cell-based. To be noted: Mycobacterium tuberculosis, 168 h, read-out: M. tuberculosis MIC. A general note: Resazurin is reduced to fluorescent resorufin, in cell work by metabolically active cells.
For `COc1nc2ccc(Br)cc2cc1C(c1ccccc1)C(O)(CCN(C)C)c1cccc2c1CCC2` (centres unmarked) [Example 40, 1-(6-Bromo-2-methoxyquinolin-3-yl)-2-(2,3-dihydro-1H-inden-4-yl)-4-(dimethylamino)-1-phenylbutan-2-ol], the MIC was found to be 0.07 µg/mL (≈ 0.128 µM).

Still in this assay, the particulars now being: Mycobacterium tuberculosis, 168 h; H37Rv, MABA, 7H12 media, 7 days at 37° C.; MIC = lowest concentration reducing fluorescence by 90% relative to controls; read-out: M. tuberculosis MIC.
For the molecule `COc1cc(C(O)(CCN(C)C)C(c2cc3cc(Br)ccc3nc2OC)c2cccc(OC)c2F)cc(SC)n1` (centres unmarked) [Example 48, 1-(6-Bromo-2-methoxyquinolin-3-yl)-4-(dimethylamino)-1-(2-fluoro-3-methoxyphenyl)-2-(2-methoxy-6-(methylthio)pyridin-4-yl)butan-2-ol], the MIC was < 0.02 µg/mL.

For the molecule `CCOc1cc(C(O)(CCN(C)C)C(c2cc3cc(Br)ccc3nc2OC)c2cccc(OC)c2F)cc(OC)n1` (centres unmarked) [Example 17, 1-(6-Bromo-2-methoxyquinolin-3-yl)-4-(dimethylamino)-2-(2-ethoxy-6-methoxypyridin-4-yl)-1-(2-fluoro-3-methoxyphenyl)butan-2-ol], the MIC is < 0.01 µg/mL.

Take `COc1cc(C(O)(CCN(C)C)C(c2cccc(C)c2)c2cc3cc(Br)ccc3nc2OC)cc(OC(C)C)n1` (centres unmarked) [Example 25, 1-(6-Bromo-2-methoxyquinolin-3-yl)-4-(dimethylamino)-2-(2-isopropoxy-6-methoxypyridin-4-yl)-1-(m-tolyl)butan-2-ol]: the MIC was 0.01 µg/mL (≈ 0.0164 µM).

Consider `CNCCC(O)(c1cc(OC)nc(OC)c1)C(c1cc2cc(C#N)ccc2nc1OC)c1cccc2c1OCCO2` (centres unmarked) [Example 93, 3-(1-(2,3-Dihydrobenzo[b][1,4]dioxin-5-yl)-2-(2,6-dimethoxypyridin-4-yl)-2-hydroxy-4-(methylamino)butyl)-2-methoxyquinoline-6-carbonitrile], for which the MIC amounted to 0.01 µg/mL (≈ 0.018 µM).

On to `COc1cc(C(O)(CCN(C)C)C(c2cccc(F)c2)c2cc3cc(Br)ccc3nc2OC)cc(OC)n1` (centres unmarked) [Example 39, 1-(6-Bromo-2-methoxyquinolin-3-yl)-2-(2,6-dimethoxypyridin-4-yl)-4-(dimethylamino)-1-(3-fluorophenyl)butan-2-ol], for which the MIC was < 0.02 µg/mL.

Consider `COc1nc2ccc(Br)cc2cc1C(c1ccnc(OC)c1OC)C(O)(CCN(C)C)c1cc(SC)nc(SC)c1` (centres unmarked) [Example 46, 2-(2,6-Bis(methylthio)pyridin-4-yl)-1-(6-bromo-2-methoxyquinolin-3-yl)-1-(2,3-dimethoxypyridin-4-yl)-4-(dimethylamino)butan-2-ol], for which the MIC is < 0.02 µg/mL.

For the molecule `COc1cccc(C(c2cc3cc(Br)ccc3nc2OC)C(O)(CCN(C)C)c2cc(C)nc(C)c2)c1OC` (centres unmarked) [Example 37, 1-(6-Bromo-2-methoxyquinolin-3-yl)-1-(2,3-dimethoxyphenyl)-4-(dimethylamino)-2-(2,6-dimethylpyridin-4-yl)butan-2-ol], the MIC worked out at 0.08 µg/mL (≈ 0.135 µM).

On to `COc1cc(C(O)(CCN(C)C)C(c2cccc(F)c2)c2cc3cc(C#N)ccc3nc2OC)cc(OC)n1` (centres unmarked) [Example 80, 3-(2-(2,6-Dimethoxypyridin-4-yl)-4-(dimethylamino)-1-(3-fluorophenyl)-2-hydroxybutyl)-2-methoxyquinoline-6-carbonitrile], for which the minimum inhibitory concentration (MIC) turned out to be 0.03 µg/mL (≈ 0.0565 µM).

Regarding `CCOc1cc(C(c2cc3cc(Br)ccc3nc2OC)C(O)(CCN(C)C)c2cccc3ccoc23)cc(OCC)n1` (centres unmarked) [Example 12, 2-(Benzofuran-7-yl)-1-(6-bromo-2-methoxyquinolin-3-yl)-1-(2,6-diethoxypyridin-4-yl)-4-(dimethylamino)butan-2-ol], the MIC is < 0.01 µg/mL.

As to `COc1cc(C(O)(CCN(C)C)C(c2cc3cc(Br)ccc3nc2OC)c2ccnc(OC)c2OC)cc(OC(F)F)n1` (centres unmarked) [Example 51, 1-(6-Bromo-2-methoxyquinolin-3-yl)-2-(2-(difluoromethoxy)-6-methoxypyridin-4-yl)-1-(2,3-dimethoxypyridin-4-yl)-4-(dimethylamino)butan-2-ol], the MIC was < 0.004 µg/mL.

With `COc1nc2ccc(Br)cc2cc1C(c1ccnc(OC)c1OC)C(O)(CCN(C)C)c1ccc2occc2c1` (centres unmarked) [Example 10, 2-(Benzofuran-5-yl)-1-(6-bromo-2-methoxyquinolin-3-yl)-1-(2,3-dimethoxypyridin-4-yl)-4-(dimethylamino)butan-2-ol], the MIC is 0.03 µg/mL (≈ 0.0495 µM).

Turning to `COc1cc(C(O)(CCN(C)C)C(c2cc3cc(Br)ccc3nc2OC)c2ccnc(OC)c2OC)c(OC)c(OC)n1` (centres unmarked) [Example 61, 1-(6-Bromo-2-methoxyquinolin-3-yl)-1-(2,3-dimethoxypyridin-4-yl)-4-(dimethylamino)-2-(2,3,6-trimethoxypyridin-4-yl)butan-2-ol], the MIC was determined as 0.02 µg/mL (≈ 0.0304 µM).

Consider `COc1cc(C(O)(CCN(C)C)C(c2cc3cc(Br)ccc3nc2OC)c2ccnc(OC)c2OC)cc(OC2CCC2)n1` (centres unmarked) [Example 30, 1-(6-Bromo-2-methoxyquinolin-3-yl)-2-(2-cyclobutoxy-6-methoxypyridin-4-yl)-1-(2,3-dimethoxypyridin-4-yl)-4-(dimethylamino)butan-2-ol], for which the minimal inhibitory concentration (MIC) was < 0.004 µg/mL.

Turning to `COc1cc(C(O)(CCN(C)C)C(c2cc3cc(Br)ccc3nc2OC)c2sc(OC)nc2Cl)cc(OC)n1` (centres unmarked) [Example 71, 1-(6-Bromo-2-methoxyquinolin-3-yl)-1-(4-chloro-2-methoxythiazol-5-yl)-2-(2,6-dimethoxypyridin-4-yl)-4-(dimethylamino)butan-2-ol], the minimal inhibitory concentration (MIC) worked out at 0.03 µg/mL (≈ 0.047 µM).

`CCOc1cc(C(O)(CCN(C)C)C(c2cccc(C)c2)c2cc3cc(Cl)ccc3nc2OC)cc(OCC)n1` (centres unmarked) [Example 32, 1-(6-Chloro-2-methoxyquinolin-3-yl)-2-(2,6-diethoxypyridin-4-yl)-4-(dimethylamino)-1-(m-tolyl)butan-2-ol]: the MIC was determined as 0.02 µg/mL (≈ 0.0355 µM).

On to `COc1nc2ccc(Br)cc2cc1C(c1cccc2c1OCCO2)C(O)(CCN(C)C)c1cc(SC)nc(SC)c1` (centres unmarked) [Example 56, 2-(2,6-Bis(methylthio)pyridin-4-yl)-1-(6-bromo-2-methoxyquinolin-3-yl)-1-(2,3-dihydrobenzo[b][1,4]dioxin-5-yl)-4-(dimethylamino)butan-2-ol], for which the MIC came to 0.01 µg/mL (≈ 0.0152 µM).

As for `COc1cc(C(c2cc3cc(C#N)ccc3nc2OC)C(O)(CCN(C)C)c2cccc3ccoc23)cc(OC(C)C)n1` (centres unmarked) [Example 77, 3-(2-(Benzofuran-7-yl)-4-(dimethylamino)-2-hydroxy-1-(2-isopropoxy-6-methoxypyridin-4-yl)butyl)-2-methoxyquinoline-6-carbonitrile], the MIC was < 0.02 µg/mL.

As for `COc1nc2ccc(C#N)cc2cc1C(c1cccc(F)c1)C(O)(CCN(C)C)c1cc2ccccc2o1` (centres unmarked) [Example 73, 3-(2-(Benzofuran-2-yl)-4-(dimethylamino)-1-(3-fluorophenyl)-2-hydroxybutyl)-2-methoxyquinoline-6-carbonitrile], the MIC is 0.08 µg/mL (≈ 0.157 µM).

Regarding `CCOc1cc(C(O)(CCN(C)C)C(c2cc3cc(Br)ccc3nc2OC)c2ccnc(OC)c2OC)cc(OC)n1` (centres unmarked) [Example 20, 1-(6-Bromo-2-methoxyquinolin-3-yl)-1-(2,3-dimethoxypyridin-4-yl)-4-(dimethylamino)-2-(2-ethoxy-6-methoxypyridin-4-yl)butan-2-ol], the MIC was < 0.02 µg/mL.

Regarding `COc1cc(C(O)(CCN(C)C)C(c2ccccc2)c2cc3cc(I)ccc3nc2OC)cc(OC)n1` (centres unmarked) [Example 42, 2-(2,6-Dimethoxypyridin-4-yl)-4-(dimethylamino)-1-(6-iodo-2-methoxyquinolin-3-yl)-1-phenylbutan-2-ol], the MIC was < 0.02 µg/mL.

For the molecule `CCOc1cc(C(O)(CCN(C)C)C(c2cc3cc(Cl)ccc3nc2OC)c2cccc(OC)c2F)cc(OCC)n1` (centres unmarked) [Example 27, 1-(6-Chloro-2-methoxyquinolin-3-yl)-2-(2,6-diethoxypyridin-4-yl)-4-(dimethylamino)-1-(2-fluoro-3-methoxyphenyl)butan-2-ol], the MIC was 0.01 µg/mL (≈ 0.0167 µM).

On to `COc1cc(C(O)(CCN(C)C)C(c2cc3cc(C#N)ccc3nc2OC)c2ccnc(OC)c2OC)cc(N(C)C)n1` (centres unmarked) [Example 94, 3-(1-(2,3-Dimethoxypyridin-4-yl)-4-(dimethylamino)-2-(2-(dimethylamino)-6-methoxypyridin-4-yl)-2-hydroxybutyl)-2-methoxyquinoline-6-carbonitrile], for which the MIC is 0.06 µg/mL (≈ 0.102 µM).

Regarding `COc1nc2ccc(Br)cc2cc1C(c1ccccc1)C(O)(CCN(C)C)c1cccc2occc12` (centres unmarked) [Example 14, 2-(Benzofuran-4-yl)-1-(6-bromo-2-methoxyquinolin-3-yl)-4-(dimethylamino)-1-phenylbutan-2-ol], the MIC stood at 0.06 µg/mL (≈ 0.11 µM).

Regarding `CNCCC(O)(c1cc(OC)nc(OC)c1)C(c1cccc(F)c1)c1cc2cc(C#N)ccc2nc1OC` (centres unmarked) [Example 97, 3-(2-(2,6-Dimethoxypyridin-4-yl)-1-(3-fluorophenyl)-2-hydroxy-4-(methylamino)butyl)-2-methoxyquinoline-6-carbonitrile], the MIC was determined as 0.01 µg/mL (≈ 0.0194 µM).

Regarding `COc1cccc(C(c2cc3cc(Br)ccc3nc2OC)C(O)(CCN(C)C)c2cc(SC)nc(SC)c2)c1F` (centres unmarked) [Example 45, 2-(2,6-Bis(methylthio)pyridin-4-yl)-1-(6-bromo-2-methoxyquinolin-3-yl)-4-(dimethylamino)-1-(2-fluoro-3-methoxyphenyl)butan-2-ol], the MIC is < 0.02 µg/mL.

In the case of `COc1nc2ccc(Br)cc2cc1C(c1ccnc(OC)c1OC)C(O)(CCN(C)C)c1cccc(C)c1` (centres unmarked) [Example 4, 1-(6-Bromo-2-methoxyquinolin-3-yl)-1-(2,3-dimethoxypyridin-4-yl)-4-(dimethylamino)-2-(m-tolyl)butan-2-ol], the MIC turned out to be 0.02 µg/mL (≈ 0.0345 µM).

Take `CCCOc1cc(C(O)(CCN(C)C)C(c2cc3cc(Br)ccc3nc2OC)c2ccnc(OC)c2OC)cc(OC)n1` (centres unmarked) [Example 28, 1-(6-Bromo-2-methoxyquinolin-3-yl)-1-(2,3-dimethoxypyridin-4-yl)-4-(dimethylamino)-2-(2-methoxy-6-propoxypyridin-4-yl)butan-2-ol]: the MIC was 0.01 µg/mL (≈ 0.0153 µM).

On to `COc1cc(C(O)(CCN(C)C)C(c2cc3cc(C#N)ccc3nc2OC)c2cccc(OC)c2F)cc(SC)n1` (centres unmarked) [Example 87, 3-(4-(Dimethylamino)-1-(2-fluoro-3-methoxyphenyl)-2-hydroxy-2-(2-methoxy-6-(methylthio)pyridin-4-yl)butyl)-2-methoxyquinoline-6-carbonitrile], for which the MIC is 0.02 µg/mL (≈ 0.0347 µM).

Broadly, the MIC is the lowest concentration found to suppress growth.

For the origin of these results see patent US10981891B2, “Antibacterial compounds and uses thereof” (priority 2016, dated 2021).
